Data: the NIST ThermoML archive (doi:10.1016/j.fluid.2015.08.029)

Assay: xn = mol fraction of the nth substance listed
Settings: Buoyancy - hydrostatic balance with magnetic suspension - one sinker, x2 = 0.95

C [methane] + O=C=O
Settings	mass density [kg/m3]
300.07 K, 7972.2 kPa, Fluid (supercritical or subcritical phases)	556.595
300.14 K, 8371 kPa, Fluid (supercritical or subcritical phases)	616.06
300.14 K, 8570.3 kPa, Fluid (supercritical or subcritical phases)	633.917
300.15 K, 8770.2 kPa, Fluid (supercritical or subcritical phases)	648.153
300.15 K, 8969.4 kPa, Fluid (supercritical or subcritical phases)	660.072
300.15 K, 9169.7 kPa, Fluid (supercritical or subcritical phases)	670.371
300.15 K, 9370.4 kPa, Fluid (supercritical or subcritical phases)	679.432
300.15 K, 9569.6 kPa, Fluid (supercritical or subcritical phases)	687.435
300.15 K, 9968.4 kPa, Fluid (supercritical or subcritical phases)	701.498
300.16 K, 9768.4 kPa, Fluid (supercritical or subcritical phases)	694.681
300.17 K, 8169.8 kPa, Fluid (supercritical or subcritical phases)	590.047
301.07 K, 7972.4 kPa, Fluid (supercritical or subcritical phases)	491.013
301.08 K, 7573.6 kPa, Liquid	317.651
301.11 K, 7972.7 kPa, Liquid	489.743
301.11 K, 8970.7 kPa, Liquid	641.991
301.13 K, 6976 kPa, Gas	227.803
301.13 K, 7872.3 kPa, Liquid	446.609
301.14 K, 4003.5 kPa, Gas	86.6567
301.14 K, 5978.2 kPa, Gas	160.13
301.14 K, 7972.1 kPa, Liquid	486.831
301.14 K, 8170.1 kPa, Liquid	548.746
301.14 K, 8371.5 kPa, Fluid (supercritical or subcritical phases)	585.039
301.14 K, 8570.7 kPa, Fluid (supercritical or subcritical phases)	609.188
301.14 K, 9969.4 kPa, Liquid	689.045
301.14 K, 10967 kPa, Liquid	718.917
301.14 K, 11966 kPa, Liquid	741.154
301.15 K, 1990.5 kPa, Gas	37.5288
301.15 K, 2980.5 kPa, Gas	59.7905
301.15 K, 4979.8 kPa, Gas	117.931
301.15 K, 7772.9 kPa, Liquid	394.053
301.15 K, 8071.6 kPa, Liquid	522.073
301.15 K, 8271.7 kPa, Liquid	569.213
301.15 K, 8770.5 kPa, Fluid (supercritical or subcritical phases)	627.154
301.15 K, 8970.7 kPa, Fluid (supercritical or subcritical phases)	641.721
301.15 K, 9370.6 kPa, Fluid (supercritical or subcritical phases)	664.364
301.15 K, 9568.5 kPa, Fluid (supercritical or subcritical phases)	673.475
301.15 K, 9768.6 kPa, Fluid (supercritical or subcritical phases)	681.815
301.15 K, 9968.2 kPa, Fluid (supercritical or subcritical phases)	689.247
301.16 K, 7673.5 kPa, Liquid	347.909
301.16 K, 9169.7 kPa, Fluid (supercritical or subcritical phases)	653.715
301.17 K, 8170.5 kPa, Fluid (supercritical or subcritical phases)	547.088
302.07 K, 7971.5 kPa, Fluid (supercritical or subcritical phases)	416.856
302.09 K, 7574.3 kPa, Liquid	293.998
302.14 K, 7873.7 kPa, Liquid	376.389
302.14 K, 8073.1 kPa, Liquid	455.2
302.14 K, 8171.5 kPa, Liquid	491.43
302.14 K, 8273.3 kPa, Liquid	521.984
302.15 K, 7774.4 kPa, Liquid	340.924
302.15 K, 7973.5 kPa, Liquid	414.824
302.15 K, 8570 kPa, Fluid (supercritical or subcritical phases)	578.598
302.15 K, 8769.9 kPa, Fluid (supercritical or subcritical phases)	602.454
302.15 K, 8969.1 kPa, Fluid (supercritical or subcritical phases)	620.555
302.15 K, 9168.8 kPa, Fluid (supercritical or subcritical phases)	635.22
302.15 K, 9369 kPa, Fluid (supercritical or subcritical phases)	647.538
302.16 K, 7674.4 kPa, Liquid	312.96
302.16 K, 8169.9 kPa, Fluid (supercritical or subcritical phases)	489.715
302.16 K, 8371.1 kPa, Fluid (supercritical or subcritical phases)	543.85
302.16 K, 9568.3 kPa, Fluid (supercritical or subcritical phases)	658.091
302.16 K, 9768.3 kPa, Fluid (supercritical or subcritical phases)	667.497
302.16 K, 9970.6 kPa, Fluid (supercritical or subcritical phases)	676.016
303.08 K, 7971 kPa, Fluid (supercritical or subcritical phases)	368.276
303.15 K, 8169 kPa, Fluid (supercritical or subcritical phases)	434.951
303.15 K, 8369.8 kPa, Fluid (supercritical or subcritical phases)	500.535
303.15 K, 8569.4 kPa, Fluid (supercritical or subcritical phases)	546.267
303.15 K, 8770.2 kPa, Fluid (supercritical or subcritical phases)	577.054
303.16 K, 9168.7 kPa, Fluid (supercritical or subcritical phases)	616.875
303.16 K, 9368.4 kPa, Fluid (supercritical or subcritical phases)	631.164
303.16 K, 9567.7 kPa, Fluid (supercritical or subcritical phases)	643.384
303.16 K, 9967.1 kPa, Fluid (supercritical or subcritical phases)	663.476
303.17 K, 8969.3 kPa, Fluid (supercritical or subcritical phases)	598.947
303.17 K, 9768 kPa, Fluid (supercritical or subcritical phases)	653.938
304.1 K, 7971.1 kPa, Fluid (supercritical or subcritical phases)	329.354
304.14 K, 8569.2 kPa, Fluid (supercritical or subcritical phases)	496.33
304.14 K, 8968.4 kPa, Fluid (supercritical or subcritical phases)	567.739
304.15 K, 8769.3 kPa, Fluid (supercritical or subcritical phases)	537.629
304.15 K, 9169.5 kPa, Fluid (supercritical or subcritical phases)	590.204
304.15 K, 9567.9 kPa, Fluid (supercritical or subcritical phases)	622.735
304.16 K, 8171.5 kPa, Fluid (supercritical or subcritical phases)	378.227
304.16 K, 9973.8 kPa, Fluid (supercritical or subcritical phases)	646.365
304.17 K, 8370 kPa, Fluid (supercritical or subcritical phases)	438.794
304.17 K, 9370.7 kPa, Fluid (supercritical or subcritical phases)	607.811
304.17 K, 9767.3 kPa, Fluid (supercritical or subcritical phases)	634.947
305.11 K, 7971.7 kPa, Fluid (supercritical or subcritical phases)	307.661
305.15 K, 8371 kPa, Fluid (supercritical or subcritical phases)	394.247
305.15 K, 8569.8 kPa, Fluid (supercritical or subcritical phases)	449.045
305.15 K, 8769.4 kPa, Fluid (supercritical or subcritical phases)	497.809
305.15 K, 8968.6 kPa, Fluid (supercritical or subcritical phases)	535.323
305.15 K, 9168.3 kPa, Fluid (supercritical or subcritical phases)	563.28
305.15 K, 9568.1 kPa, Fluid (supercritical or subcritical phases)	602.629
305.16 K, 8169.9 kPa, Fluid (supercritical or subcritical phases)	344.406
